≈ marks a conversion by molar mass, not a printed value. Where “and” joins values, the source holds several entries; their conditions need not be identical. Identical values can stand only once. Like-named read-outs stand apart in the source and are kept apart here.

For data set [1], the system named is Clone A cells (HCV genotype 1b replicon in Huh-7). Kind of data set: HCV replicon 3-day assay, HCV RNA by TaqMan RT-PCR. The data set is classed as cell-based, Hepatitis C virus. The following applies: for EC50: Hepatitis C virus, Huh-7. As for the experimental part: The level of HCV RNA from cultures was expressed as % HCV RNA relative to control. Each point represents an average of four replicates. The effective concentration that inhibits 50% of HCV RNA levels (EC50) in the replicon-containing cells is indicated.
(§1) The levels of HCV RNA were determined using a quantitative TAQMAN® RT-PCR (PE Applied Biosystems, Foster City, Calif.).
(§2) Drug susceptibility of the replicon-containing cells to various compounds was evaluated as described previously (Howe et al. (2004) Antimicrobial Agents Chem. 48:4813-21). Briefly, cells were treated with increasing concentrations of compounds in medium containing 2% FCS and no G418 for three days at 37° C. and 5% CO2. After incubation, total RNA from the replicon-containing cells was isolated. The levels of HCV, glyceraldehyde 3-phosphate dehydrogenase (GAPDH) and ribosomal (rRNA) RNAs were quantified using TAQMAN® (PE Applied Biosystems, Foster City, Calif.) reverse transcriptase PCR reactions. The amounts of HCV, 18S ribosomal, and GAPDH RNAs in each sample were estimated by comparing the number of cycles during the exponential phase of the PCR amplification with those in the corresponding standard curves. HCV RNA standards used for the construction of the standard curve were prepared by extracting the total RNA from the Clone A cells. The RNA sample was sent to National Genetics Institute to quantify HCV RNA. Total RNA extracted from Clone A cells was quantified by O.D.260 measurement and used for construction of the standard curves of rRNA and GAPDH. The concentrations of the compounds that inhibit 50% of the HCV RNA level (EC50) were determined using the MDL® LIFE SCIENCE WORKBENCH® (LSW) Data Analysis software (MDL Information Systems, San Leandro, Calif.) in Microsoft EXCEL®. The amounts of HCV or GAPDH RNAs in the samples were expressed as HCV RNA (copies) or GAPDH (ng), respectively, per μg of total RNA using rRNA as a marker for total RNA measurement.
Background: In antiviral work, replicon cells carry a viral genome segment that copies itself.

Another data set deals with 796R(0.1 μM) cells. Kind of data set: HCV replicon 3-day assay in variant cells. The data set is classed as cell-based, Hepatitis C virus. As for the experimental part:
(§3) All resistant cells were cultured at the indicated drug concentrations in the presence of 0.5 mg/ml G418 for at least 3 weeks before analysis.
as §1, §2

A further data set relates to 796R(1 μM) cells. Kind of data set: HCV replicon 3-day assay in variant cells. Format: cell-based, Hepatitis C virus. On the procedure: as §3, §1, §2
The next data set has as its system 796R(10 μM) cells. Put plainly: HCV replicon 3-day assay in variant cells. Format: cell-based, Hepatitis C virus. As for the experimental part: as §3, §1, §2
In data set [2] the test system is Clone A cells (genotype 1b HCV replicon). Put plainly: Multiple treatments of Clone A cells, HCV RNA level. The data set is classed as cell-based, Hepatitis C virus. The source says:
The amounts of HCV RNA and rRNA in cell aliquots were estimated using a quantitative duplex TAQMAN® RT-PCR. The Y-axis represents HCV copies per μg of total cellular RNA (using rRNA as a marker for quantification). Each data point represents an average value from three replicates.
As a control, Clone A cells were passaged in parallel in the same medium containing 0.5% DMSO without compound. […] An aliquot of the cells from each passage was collected to monitor the HCV RNA levels.

The next data set deals with 1b, BB7-C316N replicon. Kind of data set: Replicon variant assay (separate laboratory). The data set is classed as cell-based. The following applies: Hepatitis C virus, read-out: HCV RNA EC50 (nM) ± SD. On the procedure: pBB7-replicon variant DNAs were linearized with Sca I, and in vitro transcription was performed using Ambion's […]® T7 High Yield Transcription kit (Austin, Tex.). Purified RNA transcripts were electroporated into Huh-7 cells in quadruplicates using a Biorad GENE PULSER® Electroporation System (Setting: 270V, 950 μF) (Hercules, Calif.). Stably transfected replicon variant cell lines were initially selected with 0.25 mg/ml G418 and stepped up to 1 mg/ml before further testing. One cell plate was stained with Crystal Violet to visualize the number of colonies and determine the colony formation efficiency. […]
(§4) The contribution of individual amino acid changes on drug resistance was assessed in replicon variants containing single amino acid mutations in NS5B in the background of the genotype 1b, BB7 adaptive replicon (Blight et al. (2000) Science 290:1972-74).
Drug susceptibility of the replicon-containing cells to various compounds was evaluated as described previously (Howe et al. (2004) Antimicrobial Agents Chem. 48:4813-21). […] The levels of HCV, glyceraldehyde 3-phosphate dehydrogenase (GAPDH) and ribosomal (rRNA) RNAs were quantified using TAQMAN® (PE Applied Biosystems, Foster City, Calif.) reverse transcriptase PCR reactions. […] The RNA sample was sent to National Genetics Institute to quantify HCV RNA. […]

Data set [3] has as its system 1b, BB7 replicon variants with single NS5B mutations. Kind of data set: Replicon variant assay, several variants taken together. Format: cell-based, Hepatitis C virus. As for the experimental part: pBB7-replicon variant DNAs were linearized with Sca I, and in vitro transcription was performed using Ambion's […]® T7 High Yield Transcription kit (Austin, Tex.). Purified RNA transcripts were electroporated into Huh-7 cells in quadruplicates using a Biorad GENE PULSER® Electroporation System (Setting: 270V, 950 μF) (Hercules, Calif.). Stably transfected replicon variant cell lines were initially selected with 0.25 mg/ml G418 and stepped up to 1 mg/ml before further testing. One cell plate was stained with Crystal Violet to visualize the number of colonies and determine the colony formation efficiency. Individual cell clones from each plate were pooled and expanded for drug susceptibility testing.
as §4, §2

In data set [4] the target is T1, HCV NS5B enzyme BB7 (C316) (Hepatitis C virus genotype 1b, UniProt Q9WMX2).
T1 construct: according to the protocol for NS5B-BB7dCT21-His as described; His (C); made in house; host or cells: E. coli
Kind of data set: biochemical. On the procedure: (§5) All NS5B enzymes were expressed and purified according to the protocol for NS5B-BB7dCT21-His as described (Howe et al. (2004) Antimicrobial Agents Chem. 48:4813-21). Briefly, expression plasmids were transformed into E. coli cells and NS5B expression was initiated by the addition of isopropyl-beta-D-thiogalactopyranoside (IPTG). After 4 to 6 hours of incubation the cells were harvested and lysed. NS5B enzymes were purified by chromatography using a nickel affinity column (Talon, B D Biosciences, Clontech Laboratories, Inc., Mountain View, Calif.)) followed by a cation exchange column (Poros H S, Applied Biosystems, Foster City, Calif.).

In data set [5] the test system is recombinant genotype 1b HCV NS5B enzyme variants. Kind of data set: NS5B polymerase biochemical assay, several enzymes taken together. Further details: species or system Hepatitis C virus genotype 1b. On the procedure:
as §5

A further data set is described as follows: physchem. The conditions noted are these: plasma or biological fluid.

`CNC(=O)c1c(-c2ccc(F)cc2)oc2cc(N(CCO)S(C)(=O)=O)c(C3CC3)cc12` [HCV-796, 5-cyclopropyl-2-(4-fluorophenyl)-6-[(2-hydroxyethyl)(methylsulfonyl)amino]-N-methyl-1-benzofuran-3-carboxamide]: the “Mean log10 Viral Reduction” value was 2.1 log10 and 2.1 ± 0.4 (0.7 μM) log10 in [1] (CloneA cells, 0.7 μM compound, 3-day assay); 1.4 log10 and 1.4 ± 0.3 (56 μM) log10 in the data set on 796R(0.1 μM) cells (796R(0.1 μM) cells, 56 μM compound, 3-day assay); 0.7 log10 and 0.7 ± 0.2 (56 μM) log10 with 796R(1 μM) cells (796R(1 μM) cells, 56 μM compound, 3-day assay); 0.5 log10 and 0.5 ± 0.3 (56 μM) log10 with 796R(10 μM) cells (796R(10 μM) cells, 56 μM compound, 3-day assay). The EC50 is 0.013 ± 0.013 µM in data set [1] (CloneA cells, HCV RNA, 72 hours, read-out: EC50 (μM) ± SD); 0.009 µM in data set [1] (hepatoma cells containing a subgenomic genotype 1b HCV replicon, read-out: EC50); 0.3 ± 0.2 µM in the data set on 796R(0.1 μM) cells (Hepatitis C virus, 796R(0.1 μM) cells, HCV RNA, 72 hours); 8 ± 5.2 µM with 796R(1 μM) cells (Hepatitis C virus, 796R(1 μM) cells, HCV RNA, 72 hours); above 88 µM in the data set with 796R(10 μM) cells (Hepatitis C virus, 796R(10 μM) cells, HCV RNA, 72 hours); 220 ± 110 nM with 1b, BB7-C316N replicon. Also, the “Fold Reduced Susceptibility” value was 23 fold in the data set on 796R(0.1 μM) cells (796R(0.1 μM) cells vs Clone A control); 618 fold in the data set on 796R(1 μM) cells (796R(1 μM) cells vs Clone A control); 6812 fold and >6812 fold in the data set on 796R(10 μM) cells (796R(10 μM) cells vs Clone A control); 3-8 fold in data set [3] (M414I/V replicon variants, range). For the same molecule, the “decrease in the HCV RNA levels” value in data set [2] (0.1 μM HCV-796, end of 16-day treatment) is recorded as “about 3.6 log10”; in data set [2] (1 μM HCV-796, end of 16-day treatment), around 4.2 log10. In addition, in [2] (hepatoma cells containing a subgenomic genotype 1b HCV replicon), the “reduction of HCV RNA levels” value is on record as 3-4 log10 HCV copies/μg total RNA. In [3] (I363V and S368F replicon variants), the “effect on the susceptibility to HCV-796 (in words)” value is reported as “modest effect”. Besides, in data set [4], half-maximal inhibition (IC50) was put at 40 nM. Also, the “difference in drug susceptibility (in words)” value in [5] (M414V/I and I363V enzyme variants vs wild type enzyme) was “no appreciable difference in drug susceptibility”. Also, in data set [5] (NS5B enzymes of genotype 1b isolates BK and J4, data not shown), the “susceptibility of Asn316 enzymes compared with Cys316 enzymes (in words)” value is listed as “less susceptible”. This molecule also registered a solubility in “physchem” of 56 µM (≈ 25 µg/mL).

As a reminder, the EC50 is the midpoint of the concentration-response curve. In general, IC50 refers to the concentration at which inhibition is half-maximal. A low value points to inhibition by little substance. For orientation: solubility means how much of the substance goes into solution per volume. Low values mean little dissolved substance, high ones much dissolved substance.

For the origin of these results see patent US20080182895A1 (priority 2006, published 2008).
